Data from patent US20260199484A1, “PROTAC DEGRADERS OF MLLT1 AND/OR MLLT3” (DARK BLUE THERAPEUTICS LTD, priority 2024, published 2026).

Tests used:
MLLT1 = molecular target: T1, MLLT1 (Mus musculus, UniProt F6UGX7); assay: MLLT1 degradation assay in NIH/3T3 cells (JESS, 5 h); format: cell-based
T1 construct: endogenous in cells; host or cells: NIH/3T3 (ATCC CRL-1658)
T1 sequence (F6UGX7 1-547): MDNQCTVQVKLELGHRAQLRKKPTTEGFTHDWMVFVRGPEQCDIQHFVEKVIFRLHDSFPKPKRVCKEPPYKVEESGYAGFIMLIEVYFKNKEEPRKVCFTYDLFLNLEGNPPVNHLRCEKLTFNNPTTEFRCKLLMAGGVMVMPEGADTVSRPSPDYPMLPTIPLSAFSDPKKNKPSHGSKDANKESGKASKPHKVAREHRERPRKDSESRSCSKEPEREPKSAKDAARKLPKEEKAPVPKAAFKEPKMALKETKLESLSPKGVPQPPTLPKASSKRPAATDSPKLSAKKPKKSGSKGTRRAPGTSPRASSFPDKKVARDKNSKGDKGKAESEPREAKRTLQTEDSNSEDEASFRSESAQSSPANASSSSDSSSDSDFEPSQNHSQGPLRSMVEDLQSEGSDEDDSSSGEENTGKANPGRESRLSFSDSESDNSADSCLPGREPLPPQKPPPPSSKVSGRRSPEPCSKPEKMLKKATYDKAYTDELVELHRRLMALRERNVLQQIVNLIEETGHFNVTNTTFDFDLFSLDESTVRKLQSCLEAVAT
Procedure: MLLT1 degradation efficacy of compounds was tested in an automated chemiluminescent detection system (JESS, Cat #004-650). NIH/3T3 (#CRL-1658, ATCC) were seeded at a density of 0.5 million cells/well in a cell culture treated 6-well cell culture plate in 2 mL of complete medium (DMEM+10% FBS+1× Penicillin-Streptomycin) and incubated at 37° C., 5% CO2. The next day, 10 mM DMSO stocks were prepared, and cells were treated with eight concentrations of test compound, starting from 100 nM, 5-fold dilution, at a final DMSO concentration of 0.1% and incubated for 5 h at 37° C., 5% CO2. Post incubation, cells were washed with HBSS and lysed in 70 μL of RIPA buffer supplemented with Protease inhibitors (sc-24948; Santa Cruz). Protein estimation was done using BCA protein assay kit (23228; Pierce). […] Post run, data was analysed using “Compass for SW” software for chemiluminescent detection. […]
MLLT3 degradation efficacy of compounds was tested in an automated chemiluminescent detection system (JESS, Cat #004-650). […] Post run, data was analysed using “Compass for SW” software for chemiluminescent detection. […]

MLLT3 = molecular target: T2, MLLT3 (Mus musculus, UniProt A2AM29); assay: MLLT3 degradation assay in NIH/3T3 cells (JESS, 5 h); format: cell-based
T2 construct: endogenous in cells; host or cells: NIH/3T3 (ATCC CRL-1658)
T2 sequence (A2AM29 1-569): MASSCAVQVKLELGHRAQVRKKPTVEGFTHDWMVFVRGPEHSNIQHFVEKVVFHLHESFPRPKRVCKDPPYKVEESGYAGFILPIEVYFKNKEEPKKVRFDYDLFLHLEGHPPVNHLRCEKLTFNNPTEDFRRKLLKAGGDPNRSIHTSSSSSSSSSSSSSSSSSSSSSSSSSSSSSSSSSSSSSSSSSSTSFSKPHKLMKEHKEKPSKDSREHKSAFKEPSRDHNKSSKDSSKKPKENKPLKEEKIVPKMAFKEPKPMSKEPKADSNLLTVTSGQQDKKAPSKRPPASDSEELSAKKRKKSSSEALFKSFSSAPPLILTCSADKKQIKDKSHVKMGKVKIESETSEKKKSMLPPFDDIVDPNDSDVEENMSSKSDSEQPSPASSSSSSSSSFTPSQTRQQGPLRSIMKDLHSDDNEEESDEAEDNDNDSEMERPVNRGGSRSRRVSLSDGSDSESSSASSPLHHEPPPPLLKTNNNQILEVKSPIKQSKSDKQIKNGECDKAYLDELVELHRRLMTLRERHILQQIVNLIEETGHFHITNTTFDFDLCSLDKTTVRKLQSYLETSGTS
Procedure: MLLT3 degradation efficacy of compounds was tested in an automated chemiluminescent detection system (JESS, Cat #004-650). NIH/3T3 (#CRL-1658, ATCC) were seeded at a density of 0.5 million cells/well in a cell culture treated 6-well cell culture plate in 2 mL of complete medium (DMEM+10% FBS+1× Penicillin-Streptomycin) and incubated at 37° C., 5% CO2. The next day, 10 mM DMSO stocks were prepared, and cells were treated with eight concentrations of test compounds, starting from 100 nM, 5-fold dilution, at a final DMSO concentration of 0.1% and incubated for 5 h at 37° C., 5% CO2. Post incubation, cells were washed with HBSS and lysed in 70 μL of RIPA buffer supplemented with Protease inhibitors (sc-24948; Santa Cruz). Later, protein estimation was done using BCA protein assay kit (23228; Pierce). 4 gg protein lysate (4 μL of 1 μg/μL lysate) was loaded into each well of the JESS cartridge (SM-W004; Bio-techne) and the JESS run was performed using 1:200 dilution of anti-mouse MLLT3 antibody (#47577; CST) and 1:800 dilution of anti-human GAPDH antibody (2118; Cell signaling technology) with anti-rabbit secondary detection module (DM-001; Bio-Techne). Post run, data was analysed using “Compass for SW” software for chemiluminescent detection. Peak fit was done using “dropped lines” method. […]

human AML = assay: in vivo mouse model of human AML (procedure of Example 112); conditions: oral administration, FIG. 1

## Cc1nn(CCCCCCCC#Cc2cccc3c2CN(C2CCC(=O)NC2=O)C3=O)c2cc(C(=O)Nc3cc4[nH]c([C@H]5CCCN5C)cc4cn3)ccc12 (mixture of isomers) [Example 1, 1-(9-(2-(2,6-dioxopiperidin-3-yl)-1-oxoisoindolin-4-yl)non-8-yn-1-yl)-3-methyl-N-(2-((R)-1-methylpyrrolidin-2-yl)-1H-pyrrolo[3,2-c]pyridin-6-yl)-1H-indazole-6-carboxamide]
MLLT1; NIH3T3, read-out: MLLT1 Dmax in NIH/3T3 cells
  Dmax: 90%
MLLT1; NIH/3T3 cells, 5 h
  DC50: 1.4 nM
MLLT3
  DC50: 1.6 nM
MLLT3; NIH3T3, maximum % degradation observed
  Dmax: 85%
Human AML
  tumour growth: reduction in tumour growth
